According to PubChem BioAssay (NCI):
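48-hour exposure; five concentrations; linearly interpolated endpoints. GI50 is the concentration that inhibits growth by half. TGI marks complete inhibition of growth.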

Legend:
Test in all cases: DTP human tumour cell line panel, 48 h
CAKI-1 renal = tested on: CAKI-1 renal
HCT-116 colon = tested on: HCT-116 colon
HOP-62 NSCLC = tested on: HOP-62 NSCLC
K-562 leukemia = tested on: K-562 leukemia
NCI-H23 lung = tested on: NCI-H23 lung
OVCAR-4 ovarian = tested on: OVCAR-4 ovarian
SF-268 CNS = tested on: SF-268 CNS
SK-MEL-2 melanoma = tested on: SK-MEL-2 melanoma
SK-MEL-28 melanoma = tested on: SK-MEL-28 melanoma
TK-10 renal = tested on: TK-10 renal
U251 CNS = tested on: U251 CNS
UACC-62 melanoma = tested on: UACC-62 melanoma
UO-31 renal = tested on: UO-31 renal

SMILES	TGI (CAKI-1 renal) [µM]	TGI (HCT-116 colon) [µM]	TGI (HOP-62 NSCLC) [µM]	TGI (K-562 leukemia) [µM]	TGI (NCI-H23 lung) [µM]	TGI (OVCAR-4 ovarian) [µM]	TGI (SF-268 CNS) [µM]	TGI (SK-MEL-2 melanoma) [µM]	TGI (SK-MEL-28 melanoma) [µM]	TGI (TK-10 renal) [µM]	TGI (U251 CNS) [µM]	TGI (UACC-62 melanoma) [µM]	TGI (UO-31 renal) [µM]	GI50 (OVCAR-4 ovarian) [µM]	GI50 (CAKI-1 renal) [nM]	GI50 (HOP-62 NSCLC) [nM]	GI50 (K-562 leukemia) [nM]	GI50 (NCI-H23 lung) [nM]	GI50 (SK-MEL-28 melanoma) [nM]	GI50 (UO-31 renal) [nM]
N=C(N)C(N=Nc1ccccc1)C(N)=O (centres undefined)	> 100	> 100	> 100	> 100	> 100	> 100	> 100	> 100	> 100	> 100	> 100	> 100	> 100	–	–	–	–	–	–	–
CCCCNc1c(CN)cnc2cc(Cl)ccc12	65.7	35.9	35.4	32.1	39.2	40.1	57.6	33.3	30	30.2	30.4	29	–	–	–	–	–	–	–	–
CN(C)CCCNc1ncnc2nc[nH]c12	> 100	> 100	> 100	> 100	> 100	> 100	> 100	> 100	> 100	> 100	> 100	> 100	> 100	–	–	–	–	–	–	–
O=c1[nH]/c(=C/c2ccc(OCc3ccccc3)cn2)c(=O)[nH]/c1=C/c1ccc(Cl)cc1	> 56.6	> 100	47.8	> 100	> 100	> 100	> 52.4	> 100	> 100	> 82.9	> 100	> 100	> 100	–	–	–	–	–	–	–
NC(=O)NO	1720	> 2500	2220	> 2260	2050	> 2500	2340	> 2450	> 2500	> 2500	2330	1560	1870	–	–	–	–	–	–	–
O=C(N/N=C/c1ccc([N+](=O)[O-])cc1)c1cccc2nc3ccccc3nc12	> 100	> 100	22.7	> 100	> 100	> 100	> 100	> 100	> 100	> 69.2	> 100	> 100	> 100	–	–	–	–	–	–	–
Cc1ccc2cc3c(ccc4ccccc43)c3c2c1CC3	> 100	> 100	> 100	> 100	> 100	> 100	> 100	> 100	> 100	> 100	> 100	> 100	> 100	> 100	–	–	–	–	–	–
C=CC(=O)N1CCN(c2nc(OC[C@@H]3CCCN3C)nc3c2CCN(c2cccc4cccc(C)c24)C3)C[C@@H]1CC#N	2.46	–	1.64	4.28	1.5	–	–	–	3.09	–	–	–	2.54	–	1180	< 10	1710	< 10	1710	1280
CC(=O)Oc1ccc2c(C)cc(=O)oc2c1	> 100	> 100	> 100	> 100	> 100	> 100	> 100	> 100	> 100	> 100	> 100	> 100	> 100	–	–	–	–	–	–	–
COc1cc2nc(-c3cccs3)nc(N3C(c4ccc(O)cc4)=NNC(=O)c4ccccc43)c2cc1OC	43.9	86	> 100	> 100	78.1	> 100	77.4	60.5	> 100	70.5	75.9	43	37.4	–	–	–	–	–	–	–
Nc1ccc(C2NC(=O)Cc3c2ccc2ccccc32)cc1 (centres undefined)	> 100	> 100	> 100	> 100	> 100	> 100	> 100	> 100	> 100	> 100	> 100	> 100	> 100	–	–	–	–	–	–	–
COc1ccc(C2C(=O)C(Cl)N2Nc2nc(C)cc(=O)[nH]2)cc1OC (centres undefined)	–	> 100	> 100	> 100	> 100	> 100	> 100	> 100	> 100	> 100	> 100	> 100	> 100	–	–	–	–	–	–	–
O=C(O)CSCC(=O)O	> 100	> 100	> 100	> 100	> 100	> 100	> 100	> 100	> 100	> 100	> 100	> 100	> 100	–	–	–	–	–	–	–
CCOC(=O)c1sc2nc(SC)nc3c2c1NCN3c1ccc2c(c1)OCCCO2	> 100	> 100	> 100	> 100	> 100	> 100	> 100	> 100	> 100	> 100	57.7	> 100	> 100	–	–	–	–	–	–	–
O=C(O)C(O)Cc1ccccn1 (centres undefined)	> 100	–	> 100	> 100	> 100	> 100	> 100	> 100	> 100	> 100	> 100	> 100	> 100	–	–	–	–	–	–	–
C(=C\c1nccs1)/c1cccc(/C=C/c2nccs2)n1	> 50	> 50	> 50	> 50	> 50	> 50	> 50	> 50	> 50	> 50	> 50	> 50	> 50	–	–	–	–	–	–	–
CC(=O)OC1COC(n2nc(/C=C/c3ccc(Cl)cc3)c(=O)n(/N=C/c3ccccc3)c2=S)C(OC(C)=O)C1OC(C)=O (centres undefined)	> 100	> 100	> 100	> 100	> 100	> 100	> 100	> 100	> 100	> 100	> 100	> 100	> 100	–	–	–	–	–	–	–
FC(F)(F)C(C1=NC(C(F)(F)F)(C(F)(F)F)N=C(N2CCOCC2)O1)C(F)(F)F	61.6	> 100	–	–	–	66.1	> 100	57.8	52.4	83.6	> 100	33.5	> 100	–	–	–	–	–	–	–
COc1ccc2oc(=O)cc(C)c2c1	> 100	> 100	> 100	> 100	> 100	> 100	> 100	> 100	> 100	> 100	> 100	> 100	> 100	–	–	–	–	–	–	–
Cc1nc(Nc2ccc(F)cc2)c2sc(=S)n(-c3ccc(F)cc3)c2n1	35.5	15	24.1	> 100	16.9	40.8	23	28.6	27.8	27.5	27.8	29.6	30.1	–	–	–	–	–	–	–
COc1ccc(C2C3CCc4ccccc4C3=NN2S(=O)(=O)c2ccc(Cl)cc2)cc1 (centres undefined)	> 100	> 100	> 100	41.8	> 100	> 100	> 100	> 100	–	> 100	60.8	> 100	> 100	–	–	–	–	–	–	–
C=CCOC1OC(CS(=O)(=O)O)C(O)C(O)C1O (centres undefined)	> 100	> 100	> 100	> 100	> 100	> 100	–	> 100	> 100	> 100	> 100	> 100	> 100	–	–	–	–	–	–	–
COc1cccc(Nc2nc(-c3cccs3)nc3ccc(Br)cc23)c1	> 100	> 100	57.9	> 100	> 100	–	> 100	> 100	–	> 100	> 100	> 100	> 100	–	–	–	–	–	–	–
O=C(c1ccccc1)[C@H]1Nc2ccc(Cl)cc2[C@H]2OCCC[C@@H]12	63	31.5	32.6	51.4	52	45	39.5	43.9	32.2	64.6	31.7	33.5	33	–	–	–	–	–	–	–
COc1ccccc1N1C(Cl)C(=O)C1c1c[nH]c2ccccc12 (centres undefined)	–	> 100	> 100	> 100	> 100	> 100	> 100	> 100	> 100	> 100	> 100	> 100	> 100	–	–	–	–	–	–	–
